This passage reports Activity, MIC50 and MIC90 results from ChEMBL document CHEMBL1275539 (2008).

One may read the MIC50 as the lowest concentration that inhibits either 50% of growth or 50% of the strains tested, depending on the study. Read a high MIC50 as lower susceptibility. What is called MIC90 is the lowest concentration that inhibits either 90% of growth or 90% of the strains tested, depending on the study. A high value points to weaker potency.

Structures are written as SMILES. Values after ≈ are worked out from the molar mass of the structure shown. Where only a bound is given, the exact number is not on record here.

Common to all, as to type: functional
The test system of test [1] is Streptococcus pneumoniae. Kind of test: Antibacterial activity against amoxicillin-resistant Streptococcus pneumoniae assessed as percent susceptible isolates by agar dilution method. Background: In agar dilution, organisms are placed on agar that contains the substance at set levels.
For test [2], the system named is Streptococcus pneumoniae. Kind of test: Antibacterial activity against penicillin-nonsusceptible Streptococcus pneumoniae isolate by agar dilution method.
Test [3] relates to Streptococcus pneumoniae. The test is described as follows: Antibacterial activity against cefotaxime-intermediate Streptococcus pneumoniae isolate by agar dilution method.
The test system of test [4] is Streptococcus pneumoniae. Kind of test: Antibacterial activity against penicillin-nonsusceptible Streptococcus pneumoniae assessed as percent susceptible isolates by agar dilution method.
Test [5] concerns Streptococcus pneumoniae. Kind of test: Antibacterial activity against erythromycin-resistant Streptococcus pneumoniae assessed as percent susceptible isolates by agar dilution method.
In test [6] the test system is Streptococcus pneumoniae. The test is described as follows: Antibacterial activity against levofloxacin-resistant Streptococcus pneumoniae assessed as percent susceptible isolates by agar dilution method.
In test [7] the test system is Streptococcus pneumoniae. Kind of test: Antibacterial activity against amoxicillin-intermediate Streptococcus pneumoniae isolate by agar dilution method.
The test system of test [8] is Streptococcus pneumoniae. Kind of test: Antibacterial activity against amoxicillin-resistant Streptococcus pneumoniae isolate by agar dilution method.
Test [9] deals with Streptococcus pneumoniae. The test is described as follows: Antibacterial activity against amoxicillin-intermediate Streptococcus pneumoniae assessed as percent susceptible isolates by agar dilution method.
Test [10] concerns Streptococcus pneumoniae. The test is described as follows: Antibacterial activity against cefotaxime-intermediate Streptococcus pneumoniae assessed as percent susceptible isolates by agar dilution method.
In test [11] the test system is Streptococcus pneumoniae. Kind of test: Antibacterial activity against cefotaxime-resistant Streptococcus pneumoniae assessed as percent susceptible isolates by agar dilution method.
In test [12] the test system is Streptococcus pneumoniae. The test is described as follows: Antibacterial activity against penicillin-susceptible Streptococcus pneumoniae assessed as percent susceptible isolates by agar dilution method.
The test system of test [13] is Streptococcus pneumoniae. Kind of test: Antibacterial activity against penicillin-susceptible Streptococcus pneumoniae isolate by agar dilution method.
The test system of test [14] is Streptococcus pneumoniae. Kind of test: Antibacterial activity against cefotaxime-resistant Streptococcus pneumoniae isolate by agar dilution method.
Test [15] deals with Streptococcus pneumoniae. Kind of test: Antibacterial activity against erythromycin-resistant Streptococcus pneumoniae isolate by agar dilution method.
The subject of test [16] is Streptococcus pneumoniae. Kind of test: Antibacterial activity against levofloxacin-resistant Streptococcus pneumoniae isolate by agar dilution method.

With `CC[C@H]1OC(=O)[C@H](C)[C@@H](O[C@H]2C[C@@](C)(OC)[C@@H](O)[C@H](C)O2)[C@H](C)[C@@H](O[C@@H]2O[C@H](C)C[C@H](N(C)C)[C@H]2O)[C@](C)(O)C[C@@H](C)C(=O)[C@H](C)[C@@H](O)[C@]1(C)O` [ERYTHROMYCIN], the Activity with Streptococcus pneumoniae [1] was 58.2%; with Streptococcus pneumoniae [4], 63.3%; in the test on Streptococcus pneumoniae [5], 0%; in the test on Streptococcus pneumoniae [6] it was 40.8%; in the test with Streptococcus pneumoniae [9], 30.6%; with Streptococcus pneumoniae [10], 50%. For the same molecule, the Activity in the test on Streptococcus pneumoniae [11] was 62.5%. The MIC50 was at most 0.12 µg/mL in the test on Streptococcus pneumoniae [2], 0.25 µg/mL (≈ 0.341 µM) in the test with Streptococcus pneumoniae [3], at least 32 µg/mL in the test with Streptococcus pneumoniae [7] and under 0.12 µg/mL in the test on Streptococcus pneumoniae [8]. The MIC90 in the test on Streptococcus pneumoniae [2], against Streptococcus pneumoniae [3] and against Streptococcus pneumoniae [7] was at least 32 µg/mL in each case.
In the case of `CO/N=C(\C(=O)N[C@@H]1C(=O)N2C(C(=O)[O-])=C(C[N+]3(C)CCCC3)CS[C@H]12)c1csc(N)n1`, the Activity in the test with Streptococcus pneumoniae [1] turned out to be 16.4%; in the test on Streptococcus pneumoniae [12], 66.4%; in the test with Streptococcus pneumoniae [4] it was 8.3%; in the test on Streptococcus pneumoniae [5], 64.9%; with Streptococcus pneumoniae [6] it was 82.9%; in the test with Streptococcus pneumoniae [9], 40%. In addition, the Activity with Streptococcus pneumoniae [10] is 29.9%; in the test on Streptococcus pneumoniae [11] it was 12.5%. Besides, the MIC50 came to 2 µg/mL (≈ 4.16 µM) against Streptococcus pneumoniae [2]; 2 µg/mL (≈ 4.16 µM) with Streptococcus pneumoniae [3]; 2 µg/mL (≈ 4.16 µM) in the test with Streptococcus pneumoniae [7]; 1 µg/mL (≈ 2.08 µM) with Streptococcus pneumoniae [13]; 2 µg/mL (≈ 4.16 µM) against Streptococcus pneumoniae [8]; 2 µg/mL (≈ 4.16 µM) in the test on Streptococcus pneumoniae [14]. For the same molecule, the MIC50 with Streptococcus pneumoniae [15] was 1 µg/mL (≈ 2.08 µM); with Streptococcus pneumoniae [16], 0.25 µg/mL (≈ 0.52 µM). The MIC90 against Streptococcus pneumoniae [2] was determined as 4 µg/mL (≈ 8.32 µM); against Streptococcus pneumoniae [3], 2 µg/mL (≈ 4.16 µM); with Streptococcus pneumoniae [7] it was 2 µg/mL (≈ 4.16 µM); against Streptococcus pneumoniae [13], 2 µg/mL (≈ 4.16 µM); against Streptococcus pneumoniae [8] it was 8 µg/mL (≈ 16.6 µM); in the test on Streptococcus pneumoniae [14], 4 µg/mL (≈ 8.32 µM). Besides, the MIC90 against Streptococcus pneumoniae [15] and in the test on Streptococcus pneumoniae [16] was 2 µg/mL (≈ 4.16 µM) each time.
`CO/N=C(\C(=O)N[C@@H]1C(=O)N2C(C(=O)O)=C(CSc3nc(=O)c(O)nn3C)CS[C@H]12)c1csc(N)n1` [CEFTRIAXONE]: the Activity turned out to be 95.2% with Streptococcus pneumoniae [1]; 98.8% in the test with Streptococcus pneumoniae [12]; 83.3% with Streptococcus pneumoniae [4]; 97.1% in the test with Streptococcus pneumoniae [5]; 99.3% with Streptococcus pneumoniae [6]; 95.3% in the test on Streptococcus pneumoniae [9]. The Activity was found to be 97.2% in the test with Streptococcus pneumoniae [10] and 31.3% with Streptococcus pneumoniae [11]. Also, the MIC50 worked out at 1 µg/mL (≈ 1.8 µM) against Streptococcus pneumoniae [2]; 1 µg/mL (≈ 1.8 µM) with Streptococcus pneumoniae [3]; 1 µg/mL (≈ 1.8 µM) in the test on Streptococcus pneumoniae [7]; 0.5 µg/mL (≈ 0.902 µM) in the test on Streptococcus pneumoniae [13]; 1 µg/mL (≈ 1.8 µM) in the test with Streptococcus pneumoniae [8]; 2 µg/mL (≈ 3.61 µM) against Streptococcus pneumoniae [14]. The MIC50 against Streptococcus pneumoniae [15] worked out at 0.5 µg/mL (≈ 0.902 µM); in the test on Streptococcus pneumoniae [16], 0.06 µg/mL (≈ 0.108 µM). Also, the MIC90 was found to be 2 µg/mL (≈ 3.61 µM) against Streptococcus pneumoniae [2]; 1 µg/mL (≈ 1.8 µM) in the test on Streptococcus pneumoniae [3]; 1 µg/mL (≈ 1.8 µM) with Streptococcus pneumoniae [7]; 1 µg/mL (≈ 1.8 µM) against Streptococcus pneumoniae [13]; 1 µg/mL (≈ 1.8 µM) with Streptococcus pneumoniae [8]; 4 µg/mL (≈ 7.21 µM) against Streptococcus pneumoniae [14]. Moreover, the MIC90 in the test with Streptococcus pneumoniae [15] and against Streptococcus pneumoniae [16] was 1 µg/mL (≈ 1.8 µM) each time.
With `C[C@H]1COc2c(N3CCN(C)CC3)c(F)cc3c(=O)c(C(=O)O)cn1c23.C[C@H]1COc2c(N3CCN(C)CC3)c(F)cc3c(=O)c(C(=O)O)cn1c23.O` [LEVOFLOXACIN], the Activity in the test on Streptococcus pneumoniae [1] was determined as 86.7%; in the test on Streptococcus pneumoniae [4], 95%; with Streptococcus pneumoniae [5] it was 72%; in the test with Streptococcus pneumoniae [6], 0%; in the test with Streptococcus pneumoniae [10] it was 97.2%; in the test with Streptococcus pneumoniae [11], 93.8%. The MIC50 with Streptococcus pneumoniae [2] was at most 1 µg/mL; against Streptococcus pneumoniae [3], at most 1 µg/mL; in the test with Streptococcus pneumoniae [7], at most 1 µg/mL; against Streptococcus pneumoniae [8] it was under 1 µg/mL; in the test with Streptococcus pneumoniae [16], 16 µg/mL. Further, the MIC90 in the test on Streptococcus pneumoniae [2] is at most 1 µg/mL; against Streptococcus pneumoniae [3] it was 1 µg/mL; with Streptococcus pneumoniae [7], 16 µg/mL; in the test with Streptococcus pneumoniae [8], 16 µg/mL; in the test with Streptococcus pneumoniae [14], 1 µg/mL; with Streptococcus pneumoniae [15], 16 µg/mL. Further, in the test on Streptococcus pneumoniae [16], the MIC90 is at least 32 µg/mL.
Turning to `CO/N=C(\C(=O)N[C@@H]1C(=O)N2C(C(=O)O)=C(COC(C)=O)CS[C@H]12)c1csc(N)n1` [CEFOTAXIME], the Activity is 49.7% with Streptococcus pneumoniae [1]; 80.7% with Streptococcus pneumoniae [12]; 25% in the test with Streptococcus pneumoniae [4]; 77% in the test on Streptococcus pneumoniae [5]; 62.4% in the test on Streptococcus pneumoniae [9]; 0% in the test with Streptococcus pneumoniae [10]. The MIC50 in the test on Streptococcus pneumoniae [2] is 2 µg/mL (≈ 4.39 µM); against Streptococcus pneumoniae [3] it was 2 µg/mL (≈ 4.39 µM); with Streptococcus pneumoniae [7], 1 µg/mL (≈ 2.2 µM); in the test with Streptococcus pneumoniae [13], 1 µg/mL (≈ 2.2 µM); with Streptococcus pneumoniae [8], 2 µg/mL (≈ 4.39 µM); in the test with Streptococcus pneumoniae [14], 4 µg/mL (≈ 8.78 µM). Moreover, the MIC50 in the test with Streptococcus pneumoniae [15] was found to be 1 µg/mL (≈ 2.2 µM); in the test with Streptococcus pneumoniae [16], 0.06 µg/mL (≈ 0.132 µM). For the same molecule, the MIC90 against Streptococcus pneumoniae [2] is 4 µg/mL (≈ 8.78 µM); in the test with Streptococcus pneumoniae [3] it was 2 µg/mL (≈ 4.39 µM); in the test with Streptococcus pneumoniae [7], 2 µg/mL (≈ 4.39 µM); with Streptococcus pneumoniae [13], 2 µg/mL (≈ 4.39 µM); in the test with Streptococcus pneumoniae [8] it was 2 µg/mL (≈ 4.39 µM); against Streptococcus pneumoniae [14] it was 8 µg/mL (≈ 17.6 µM). Also, the MIC90 against Streptococcus pneumoniae [15] turned out to be 2 µg/mL (≈ 4.39 µM); in the test with Streptococcus pneumoniae [16], 1 µg/mL (≈ 2.2 µM).
